{"source": "patent US20090304692A1", "about": "“TRIAZINE COMPOUNDS AS PI3 KINASE AND MTOR INHIBITORS” (Wyeth, priority 2008, published 2009)", "key": {"Human mTOR (FLAG-TOR)": {"biological_target": "Human mTOR (FLAG-TOR) (Homo sapiens, UniProt P42345)", "sequence (P42345 1360-2549 limits assumed)": "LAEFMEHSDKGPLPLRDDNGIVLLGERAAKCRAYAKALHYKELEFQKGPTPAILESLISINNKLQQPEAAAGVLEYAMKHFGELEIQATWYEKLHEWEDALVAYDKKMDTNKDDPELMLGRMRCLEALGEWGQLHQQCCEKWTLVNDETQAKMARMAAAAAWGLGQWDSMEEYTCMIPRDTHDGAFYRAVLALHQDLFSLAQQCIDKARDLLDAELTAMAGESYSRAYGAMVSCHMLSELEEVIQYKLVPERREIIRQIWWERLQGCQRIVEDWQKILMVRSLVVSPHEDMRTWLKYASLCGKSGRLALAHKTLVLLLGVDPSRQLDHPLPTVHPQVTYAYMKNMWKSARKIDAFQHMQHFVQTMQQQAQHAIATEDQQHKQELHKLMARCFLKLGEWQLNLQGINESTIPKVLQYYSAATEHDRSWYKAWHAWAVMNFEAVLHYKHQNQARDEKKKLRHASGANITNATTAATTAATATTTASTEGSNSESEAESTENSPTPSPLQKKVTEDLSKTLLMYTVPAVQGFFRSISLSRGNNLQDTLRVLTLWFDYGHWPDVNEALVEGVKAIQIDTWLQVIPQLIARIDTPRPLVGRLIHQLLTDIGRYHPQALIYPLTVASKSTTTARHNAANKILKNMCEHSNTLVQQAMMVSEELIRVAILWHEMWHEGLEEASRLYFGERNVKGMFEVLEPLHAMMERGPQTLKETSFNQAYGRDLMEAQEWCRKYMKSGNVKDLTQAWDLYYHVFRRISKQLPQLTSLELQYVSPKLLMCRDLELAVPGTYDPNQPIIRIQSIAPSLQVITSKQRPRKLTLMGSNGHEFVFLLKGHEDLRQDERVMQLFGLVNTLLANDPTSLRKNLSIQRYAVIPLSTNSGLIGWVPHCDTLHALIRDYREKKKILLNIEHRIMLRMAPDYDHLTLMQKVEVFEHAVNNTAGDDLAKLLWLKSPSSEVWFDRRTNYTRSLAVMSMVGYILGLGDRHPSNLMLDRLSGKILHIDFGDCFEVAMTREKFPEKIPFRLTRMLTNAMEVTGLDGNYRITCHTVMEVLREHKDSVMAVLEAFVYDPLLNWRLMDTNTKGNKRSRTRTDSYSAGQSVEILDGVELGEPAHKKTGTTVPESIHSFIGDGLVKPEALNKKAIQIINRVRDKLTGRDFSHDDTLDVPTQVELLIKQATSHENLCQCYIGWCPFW", "experiment": "mTOR kinase assay (DELFIA format, purified enzyme)", "assay_type": "biochemical", "conditions": "read-out: IC50 mTOR"}, "PI3K-α": {"biological_target": "PI3K-α (Homo sapiens, UniProt P42336)", "sequence (P42336 whole entry, species assumed)": "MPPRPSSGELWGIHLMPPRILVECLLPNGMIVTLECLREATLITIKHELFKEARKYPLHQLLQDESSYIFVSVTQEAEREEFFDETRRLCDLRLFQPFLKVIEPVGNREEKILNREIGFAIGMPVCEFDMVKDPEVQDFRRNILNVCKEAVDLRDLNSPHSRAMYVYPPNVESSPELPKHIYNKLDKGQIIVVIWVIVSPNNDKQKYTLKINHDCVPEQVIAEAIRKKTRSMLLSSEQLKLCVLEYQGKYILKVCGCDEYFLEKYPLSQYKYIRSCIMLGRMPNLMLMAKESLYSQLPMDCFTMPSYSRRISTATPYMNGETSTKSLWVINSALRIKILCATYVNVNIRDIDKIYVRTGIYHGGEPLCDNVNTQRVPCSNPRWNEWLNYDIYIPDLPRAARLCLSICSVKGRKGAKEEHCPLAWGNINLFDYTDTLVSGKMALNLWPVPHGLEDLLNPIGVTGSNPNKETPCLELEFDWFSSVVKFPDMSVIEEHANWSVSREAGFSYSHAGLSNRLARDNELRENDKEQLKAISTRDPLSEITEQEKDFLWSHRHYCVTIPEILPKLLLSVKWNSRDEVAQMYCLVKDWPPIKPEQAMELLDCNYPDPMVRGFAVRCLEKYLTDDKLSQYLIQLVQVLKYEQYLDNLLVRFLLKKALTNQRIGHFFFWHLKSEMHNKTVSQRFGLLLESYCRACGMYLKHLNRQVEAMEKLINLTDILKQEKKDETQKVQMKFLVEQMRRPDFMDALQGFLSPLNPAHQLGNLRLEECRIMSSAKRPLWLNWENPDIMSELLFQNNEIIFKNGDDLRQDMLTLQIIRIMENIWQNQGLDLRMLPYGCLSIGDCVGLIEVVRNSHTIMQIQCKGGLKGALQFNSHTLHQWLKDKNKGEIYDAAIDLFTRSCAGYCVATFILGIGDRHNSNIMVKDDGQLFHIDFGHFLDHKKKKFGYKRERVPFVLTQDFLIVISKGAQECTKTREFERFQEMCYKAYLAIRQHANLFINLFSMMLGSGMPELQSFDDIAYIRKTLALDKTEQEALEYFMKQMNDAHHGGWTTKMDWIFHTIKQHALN", "sequence (P27986 whole entry partner, species assumed)": "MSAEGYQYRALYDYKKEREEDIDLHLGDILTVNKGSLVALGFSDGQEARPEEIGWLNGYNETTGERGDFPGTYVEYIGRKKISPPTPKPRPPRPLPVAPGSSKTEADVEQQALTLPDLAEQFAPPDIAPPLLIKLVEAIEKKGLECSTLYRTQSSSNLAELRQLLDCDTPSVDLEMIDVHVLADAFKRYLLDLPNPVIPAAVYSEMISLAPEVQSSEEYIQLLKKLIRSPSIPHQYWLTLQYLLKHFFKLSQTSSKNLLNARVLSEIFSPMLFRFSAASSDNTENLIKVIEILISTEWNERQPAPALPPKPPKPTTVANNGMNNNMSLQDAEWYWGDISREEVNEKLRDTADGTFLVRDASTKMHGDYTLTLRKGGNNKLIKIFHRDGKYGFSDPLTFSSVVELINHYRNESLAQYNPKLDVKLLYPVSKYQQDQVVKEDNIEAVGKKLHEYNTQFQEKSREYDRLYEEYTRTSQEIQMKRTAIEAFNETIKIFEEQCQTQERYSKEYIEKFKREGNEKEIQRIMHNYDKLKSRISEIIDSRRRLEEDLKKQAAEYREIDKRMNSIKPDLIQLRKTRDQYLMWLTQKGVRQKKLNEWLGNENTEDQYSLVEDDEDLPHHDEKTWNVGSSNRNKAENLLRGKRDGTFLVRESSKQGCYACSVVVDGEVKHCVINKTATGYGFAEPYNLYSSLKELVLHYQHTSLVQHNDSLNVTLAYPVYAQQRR", "experiment": "PI3K-alpha fluorescence polarization assay", "conditions": "read-out: IC50 PI3Kα"}, "PI3K-γ": {"biological_target": "PI3K-γ (Homo sapiens, UniProt P48736)", "sequence (P48736 whole entry, species assumed)": "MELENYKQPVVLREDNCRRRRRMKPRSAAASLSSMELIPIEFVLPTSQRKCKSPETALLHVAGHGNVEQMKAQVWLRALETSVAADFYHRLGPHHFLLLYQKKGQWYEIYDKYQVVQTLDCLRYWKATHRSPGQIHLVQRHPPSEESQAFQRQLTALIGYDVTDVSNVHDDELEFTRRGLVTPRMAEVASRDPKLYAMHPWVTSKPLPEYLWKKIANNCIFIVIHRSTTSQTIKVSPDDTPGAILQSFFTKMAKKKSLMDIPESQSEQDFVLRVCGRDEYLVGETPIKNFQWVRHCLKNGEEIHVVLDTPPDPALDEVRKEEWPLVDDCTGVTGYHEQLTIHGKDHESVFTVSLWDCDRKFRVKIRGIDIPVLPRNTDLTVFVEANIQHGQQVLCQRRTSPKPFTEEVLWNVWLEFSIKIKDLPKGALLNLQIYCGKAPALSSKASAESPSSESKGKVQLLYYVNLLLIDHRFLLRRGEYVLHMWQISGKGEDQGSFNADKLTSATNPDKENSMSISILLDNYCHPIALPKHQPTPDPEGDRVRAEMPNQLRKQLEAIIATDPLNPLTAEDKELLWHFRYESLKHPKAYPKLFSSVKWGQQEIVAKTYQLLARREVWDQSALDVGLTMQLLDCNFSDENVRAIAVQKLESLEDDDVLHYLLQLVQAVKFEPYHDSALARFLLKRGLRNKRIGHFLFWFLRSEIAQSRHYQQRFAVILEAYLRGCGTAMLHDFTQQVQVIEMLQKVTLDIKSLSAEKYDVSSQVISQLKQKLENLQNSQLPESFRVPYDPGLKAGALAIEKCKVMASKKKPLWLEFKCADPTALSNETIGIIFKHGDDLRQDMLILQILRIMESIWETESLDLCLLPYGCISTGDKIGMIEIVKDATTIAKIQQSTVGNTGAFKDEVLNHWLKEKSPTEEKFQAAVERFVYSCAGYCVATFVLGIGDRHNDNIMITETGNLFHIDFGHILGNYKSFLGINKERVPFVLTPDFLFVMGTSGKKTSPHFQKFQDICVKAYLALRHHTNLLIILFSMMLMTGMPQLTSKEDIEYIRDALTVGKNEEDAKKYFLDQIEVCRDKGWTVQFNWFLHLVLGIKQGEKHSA", "experiment": "PI3K-gamma fluorescence polarization assay"}}, "note": "Like-named read-outs stand apart in the source and are kept apart here."}
{"molecule": "CN1CC2CN(c3nc(-c4ccc(NC(=O)Nc5ccncc5)cc4)nc(N4CCOCC4)n3)CC(C1)O2", "note": "[Example 291, 1-{4-[4-(7-methyl-9-oxa-3,7-diazabicyclo[3.3.1]non-3-yl)-6-morpholin-4-yl-1,3,5-triazin-2-yl]phenyl}-3-pyridin-4-ylurea]", "values": [{"measurement": "IC50", "setting": "Human mTOR (FLAG-TOR)", "value": 190, "unit": "nM"}, {"measurement": "IC50", "setting": "PI3K-α", "value": 368, "unit": "nM"}, {"measurement": "IC50", "setting": "PI3K-γ; read-out: IC50 PI3Kγ", "value": 711, "unit": "nM"}]}
{"molecule": "COC(=O)c1ccc(NC(=O)Nc2ccc(-c3nc(C4=CCOCC4)nc(N4CCOCC4)n3)cc2)cc1", "note": "[Example 226, methyl 4-[({4-[4-(3,6-dihydro-2H-pyran-4-yl)-6-morpholin-4-yl-1,3,5-triazin-2-yl]phenyl}carbamoyl)amino]benzoate]", "values": [{"measurement": "IC50", "setting": "Human mTOR (FLAG-TOR)", "value": 62, "unit": "nM"}, {"measurement": "IC50", "setting": "PI3K-α", "value": 75, "unit": "nM"}, {"measurement": "IC50", "setting": "PI3K-γ; read-out: IC50 PI3Kγ", "value": 294, "unit": "nM"}]}
{"molecule": "Nc1ccc(-c2nc(N3CCOCC3)nc(N3C4CCC3COC4)n2)cc1", "note": "[Example 33, 4-[4-morpholin-4-yl-6-(3-oxa-8-azabicyclo[3.2.1]oct-8-yl)-1,3,5-triazin-2-yl]aniline]", "values": [{"measurement": "IC50", "setting": "Human mTOR (FLAG-TOR)", "value": 91, "unit": "nM"}, {"measurement": "IC50", "setting": "PI3K-α", "value": 2550, "unit": "nM"}, {"measurement": "IC50", "setting": "PI3K-γ", "value": "> 10000", "unit": "nM"}]}
{"molecule": "CNCCNC(=O)Nc1ccc(-c2nc(OC3CCOCC3)nc(N3CCOCC3)n2)cc1", "note": "[Example 64, 1-[2-(methylamino)ethyl]-3-{4-[4-morpholin-4-yl-6-(tetrahydro-2H-pyran-4-yloxy)-1,3,5-triazin-2-yl]phenyl}urea]", "values": [{"measurement": "IC50", "setting": "Human mTOR (FLAG-TOR)", "value": 1500, "unit": "nM"}, {"measurement": "IC50", "setting": "PI3K-α", "value": 1460, "unit": "nM"}, {"measurement": "IC50", "setting": "PI3K-γ; read-out: IC50 PI3Kγ", "value": 1190, "unit": "nM"}]}
{"molecule": "CN1CCN(c2ccc(NC(=O)Nc3ccc(-c4nc(NS(=O)(=O)c5ccccc5)nc(N5CCOCC5)n4)cc3)cc2)CC1", "note": "[Example 782, N-{4-[4-({[4-(4-methylpiperazin-1-yl)phenyl]carbamoyl}amino)phenyl]-6-morpholin-4-yl-1,3,5-triazin-2-yl}benzenesulfonamide]", "values": [{"measurement": "IC50", "setting": "Human mTOR (FLAG-TOR)", "value": 110, "unit": "nM"}, {"measurement": "IC50", "setting": "PI3K-α", "value": 124, "unit": "nM"}, {"measurement": "IC50", "setting": "PI3K-γ; read-out: IC50 PI3Kγ", "value": 252, "unit": "nM"}]}
{"molecule": "CN(C)C(=O)N1CCN(c2nc(-c3ccc(NC(=O)Nc4ccncc4)cc3)nc(N3CCOCC3)n2)CC1", "note": "[Example 642, N,N-dimethyl-4-(4-morpholin-4-yl-6-{4-[(pyridin-4-ylcarbamoyl)amino]phenyl}-1,3,5-triazin-2-yl)piperazine-1-carboxamide]", "values": [{"measurement": "IC50", "setting": "Human mTOR (FLAG-TOR)", "value": 1, "unit": "nM"}, {"measurement": "IC50", "setting": "PI3K-α", "value": 69, "unit": "nM"}, {"measurement": "IC50", "setting": "PI3K-γ; read-out: IC50 PI3Kγ", "value": 254, "unit": "nM"}]}
{"molecule": "CCS(=O)(=O)N1CCN(c2nc(-c3ccc(NC(=O)Nc4ccc(C(=O)OC)cc4)cc3)nc(N3CCOCC3)n2)CC1", "note": "[Example 651, methyl 4-{[(4-{4-[4-(ethylsulfonyl)piperazin-1-yl]-6-morpholin-4-yl-1,3,5-triazin-2-yl}phenyl)carbamoyl]amino}benzoate]", "values": [{"measurement": "IC50", "setting": "Human mTOR (FLAG-TOR)", "value": 14, "unit": "nM"}, {"measurement": "IC50", "setting": "PI3K-α", "value": 71, "unit": "nM"}, {"measurement": "IC50", "setting": "PI3K-γ; read-out: IC50 PI3Kγ", "value": 248, "unit": "nM"}]}
{"molecule": "CC(=O)NC1CCN(c2nc(-c3ccc(NC(=O)Nc4ccc(C(=O)O)cc4)cc3)nc(N3CCOCC3)n2)CC1", "note": "[Example 659, 4-{[(4-{4-[4-(acetylamino)piperidin-1-yl]-6-morpholin-4-yl-1,3,5-triazin-2-yl}phenyl)carbamoyl]amino}benzoic acid]", "values": [{"measurement": "IC50", "setting": "Human mTOR (FLAG-TOR)", "value": 720, "unit": "nM"}, {"measurement": "IC50", "setting": "PI3K-α", "value": 3620, "unit": "nM"}, {"measurement": "IC50", "setting": "PI3K-γ", "value": "≥ 10000", "unit": "nM"}]}
{"molecule": "CC(C)N1CCCN(c2nc(-c3ccc(NC(=O)Nc4ccc(C(=O)O)cc4)cc3)nc(N3CCOCC3)n2)CC1", "note": "[Example 655, 4-{[(4-{4-[4-(1-methylethyl)-1,4-diazepan-1-yl]-6-morpholin-4-yl-1,3,5-triazin-2-yl}phenyl)carbamoyl]amino}benzoic acid]", "values": [{"measurement": "IC50", "setting": "Human mTOR (FLAG-TOR)", "value": 625, "unit": "nM"}, {"measurement": "IC50", "setting": "PI3K-α", "value": 91.5, "unit": "nM"}, {"measurement": "IC50", "setting": "PI3K-γ; read-out: IC50 PI3Kγ", "value": 746, "unit": "nM"}]}
{"molecule": "O=C(NCCO)Nc1ccc(-c2nc(N3CCOCC3)nc(N3C4CCC3COC4)n2)cc1", "note": "[Example 45, 1-(2-hydroxyethyl)-3-{4-[4-morpholin-4-yl-6-(3-oxa-8-azabicyclo[3.2.1]oct-8-yl)-1,3,5-triazin-2-yl]phenyl}urea]", "values": [{"measurement": "IC50", "setting": "Human mTOR (FLAG-TOR)", "value": 3.6, "unit": "nM"}, {"measurement": "IC50", "setting": "PI3K-α", "value": 504, "unit": "nM"}, {"measurement": "IC50", "setting": "PI3K-γ; read-out: IC50 PI3Kγ", "value": 2080, "unit": "nM"}]}
{"molecule": "O=C(Nc1ccncc1)Nc1ccc(-c2nc(N3CCCC3)nc(N3CCOCC3)n2)cc1", "note": "[Example 600, 1-[4-(4-morpholin-4-yl-6-pyrrolidin-1-yl-1,3,5-triazin-2-yl)phenyl]-3-pyridin-4-ylurea]", "values": [{"measurement": "IC50", "setting": "Human mTOR (FLAG-TOR)", "value": 8, "unit": "nM"}, {"measurement": "IC50", "setting": "PI3K-α", "value": 45.5, "unit": "nM"}, {"measurement": "IC50", "setting": "PI3K-γ; read-out: IC50 PI3Kγ", "value": 162, "unit": "nM"}]}
{"molecule": "CCc1nc(-c2ccc(NC(=O)Nc3cccc(C(=O)N4CCN(c5ccccn5)CC4)c3)cc2)nc(N2CCOCC2)n1", "note": "[Example 587, 1-[4-(4-ethyl-6-morpholin-4-yl-1,3,5-triazin-2-yl)phenyl]-3-{3-[(4-pyridin-2-ylpiperazin-1-yl)carbonyl]phenyl}urea]", "values": [{"measurement": "IC50", "setting": "Human mTOR (FLAG-TOR)", "value": 100, "unit": "nM"}, {"measurement": "IC50", "setting": "PI3K-α", "value": 350, "unit": "nM"}, {"measurement": "IC50", "setting": "PI3K-γ; read-out: IC50 PI3Kγ", "value": 675, "unit": "nM"}]}
{"molecule": "COC(=O)c1ccc(NC(=O)Nc2ccc(-c3nc(-c4cccs4)nc(N4CCOCC4)n3)cc2)cc1", "note": "[Example 560, methyl 4-[({4-[4-morpholin-4-yl-6-(2-thienyl)-1,3,5-triazin-2-yl]phenyl}carbamoyl)amino]benzoate]", "values": [{"measurement": "IC50", "setting": "Human mTOR (FLAG-TOR)", "value": 100, "unit": "nM"}, {"measurement": "IC50", "setting": "PI3K-α", "value": 269, "unit": "nM"}, {"measurement": "IC50", "setting": "PI3K-γ; read-out: IC50 PI3Kγ", "value": 504, "unit": "nM"}]}
{"molecule": "O=C(Nc1ccncc1)Nc1ccc(-c2nc(N3CCOCC3)nc(N3C4COCC3[C@H](OCc3ccccc3)C4)n2)cc1", "note": "(stereo partly drawn) [Example 821, 1-(4-{4-[(6R)-6-(benzyloxy)-3-oxa-8-azabicyclo[3.2.1]oct-8-yl]-6-morpholin-4-yl-1,3,5-triazin-2-yl}phenyl)-3-pyridin-4-ylurea]", "values": [{"measurement": "IC50", "setting": "Human mTOR (FLAG-TOR)", "value": 3.4, "unit": "nM"}, {"measurement": "IC50", "setting": "PI3K-α", "value": 9.3, "unit": "nM"}, {"measurement": "IC50", "setting": "PI3K-γ; read-out: IC50 PI3Kγ", "value": 58.3, "unit": "nM"}]}
